Laboratory results taken from patent publication US9586928B2 (The Scripps Research Institute, priority 2011, dated 2017).

Columns and labels:
[1] = molecular target: T1, RORα (Homo sapiens, UniProt P35398); assay: Gal4-RORα LBD / UAS luciferase cotransfection assay; type: cell-based; conditions: 10 μM
T1 construct: expressed in transfected cells; host or cells: HEK293T
T1 sequence (P35398 272-510 limits assumed): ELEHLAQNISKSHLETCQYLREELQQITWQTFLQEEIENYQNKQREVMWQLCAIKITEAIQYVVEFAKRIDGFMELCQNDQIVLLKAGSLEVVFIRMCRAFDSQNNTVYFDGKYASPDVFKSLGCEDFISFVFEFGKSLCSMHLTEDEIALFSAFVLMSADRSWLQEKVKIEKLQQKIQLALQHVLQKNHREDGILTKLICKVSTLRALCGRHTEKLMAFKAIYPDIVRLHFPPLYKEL

[2] = molecular target: T2, RORγ (Homo sapiens, UniProt P51449); assay: Gal4-RORγ LBD / UAS luciferase cotransfection assay; type: cell-based; conditions: 10 μM
T2 construct: expressed in transfected cells; host or cells: HEK293T
T2 sequence (P51449 269-508 limits assumed): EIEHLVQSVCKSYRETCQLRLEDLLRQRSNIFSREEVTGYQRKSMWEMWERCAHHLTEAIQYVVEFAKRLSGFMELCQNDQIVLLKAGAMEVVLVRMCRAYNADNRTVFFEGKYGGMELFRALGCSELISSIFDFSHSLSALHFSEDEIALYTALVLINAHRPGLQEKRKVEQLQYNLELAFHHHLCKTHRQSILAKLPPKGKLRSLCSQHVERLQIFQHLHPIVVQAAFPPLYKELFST
Experimental: (§1) The cells were treated with either DMSO or various compounds as indicated four hours after replating. Following additional 20 hour incubation, luciferase levels were assayed by one-step addition of 20 μL BriteLite (Perkin Elmer) and read using an Envision multilabel plate reader (Perkin Elmer).
(§2) Cotransfection assays were performed as previously described in HEK293 cells (Gal4 cotransfection assay or IL-17 luciferase reporter)[8]. HEK293 and the mouse lymphoma EL4 (ATCC) cells were maintained in DMEM supplemented with 10% FBS plus antibiotics (penicillin and streptomycin; Invitrogen).

[3] = molecular target: T3, GST-RORγ (Homo sapiens, UniProt P51449); assay: RORγ scintillation proximity (SPA) radioligand binding assay, displacement of [3H]-T0901317; conditions: for remaining activity at 10 µM: 10 μM compound, read-out: RORγ SPA % bound = % radiolabel bound; for IC50: displacement of 5 nM [3H]-T0901317 from GST-RORγ
T3 construct: 1 μg of GST-RORγ-LBD, 5 nM of [3H]T1317 as radioligand
T3 sequence (P51449 269-508 limits assumed): T2 sequence (P51449 269-508 limits assumed)

[4] = molecular target: T4, LXR (Homo sapiens, UniProt Q13133); assay: Gal4-LXRα / UAS luciferase cotransfection assay; type: cell-based; conditions: 10 μM
T4 sequence (Q13133 209-447 limits assumed): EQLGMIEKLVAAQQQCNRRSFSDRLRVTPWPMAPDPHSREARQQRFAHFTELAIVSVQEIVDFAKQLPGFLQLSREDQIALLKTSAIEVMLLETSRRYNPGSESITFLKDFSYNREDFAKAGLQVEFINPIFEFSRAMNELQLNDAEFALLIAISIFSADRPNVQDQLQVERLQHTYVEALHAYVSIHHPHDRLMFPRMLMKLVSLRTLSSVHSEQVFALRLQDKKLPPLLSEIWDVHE
Experimental: as §1, §2

[5] = system: VP16; assay: Gal4 DBD-VP16 / UAS luciferase control assay; type: cell-based; conditions: 10 μM
Experimental: as §1

Compound	RORα repression, fold change over DMSO [1] [fold change over DMSO]	RORγ repression, fold change over DMSO [2] [fold change over DMSO]	remaining activity at 10 µM [3] [%]	LXR activation, fold change over DMSO [4] [fold change over DMSO]	VP16 repression, fold change over DMSO [5] [fold change over DMSO]	IC50 [3] [nM]
OC(c1ccc(-c2ccc(CN3CCN(Cc4ccncc4Cl)CC3)cc2)cc1)(C(F)(F)F)C(F)(F)F [Compound 92]	0.7	0.1	25	5	0.6	–
Cc1cc(-c2ccc(C(O)(C(F)(F)F)C(F)(F)F)cc2)ccc1CN1CCN(Cc2ccncc2)CC1 [Compound 94, 1,1,1,3,3,3-Hexafluoro-2-(3′-methyl-4′-((4-(pyridin-4-ylmethyl)piperazin-1-yl)methyl)-[1,1′-biphenyl]-4-yl)propan-2-ol]	0.5	0.05	–	0.8	0.8	230
COc1cc(-c2ccc(C(O)(C(F)(F)F)C(F)(F)F)cc2)ccc1CN1CCN(Cc2ccncc2)CC1 [Compound 97, 1,1,1,3,3,3-Hexafluoro-2-(3′-methoxy-4′-((4-(pyridin-4-ylmethyl)piperazin-1-yl)methyl)-[1,1′-biphenyl]-4-yl)propan-2-ol]	0.5	0.05	–	1	0.5	1500
OC(c1ccc(-c2ccc(CN3CCN(Cc4ccncc4)CC3)c(F)c2)cc1)(C(F)(F)F)C(F)(F)F [Compound 98, 1,1,1,3,3,3-Hexafluoro-2-(3′-fluoro-4′-((4-(pyridin-4-ylmethyl)piperazin-1-yl)methyl)-[1,1′-biphenyl]-4-yl)propan-2-ol]	0.8	0.05	–	2	0.65	1500
O=C(c1ccc(-c2ccc(C(O)(C(F)(F)F)C(F)(F)F)cc2)cc1)N1CCN(Cc2ccncc2)CC1 [Compound 100, (4′-(1,1,1,3,3,3-Hexafluoro-2-hydroxypropan-2-yl)-[1,1′-biphenyl]-4-yl)(4-(pyridin-4-ylmethyl)piperazin-1-yl)methanone]	0.6	0.1	–	0.8	0.4	1700
OC(c1ccc(-c2ccc(CN3CCC(Nc4ccncc4)CC3)cc2)cc1)(C(F)(F)F)C(F)(F)F [Compound 104, 1,1,1,3,3,3-Hexafluoro-2-(4′-((4-(pyridin-4-ylamino)piperidin-1-yl)methyl)-[1,1′-biphenyl]-4-yl)propan-2-ol]	0.9	0.1	20	1.1	0.4	–
OC(c1ccc(-c2ccc(CN3CCN(Cc4cncs4)CC3)cc2)cc1)(C(F)(F)F)C(F)(F)F [Compound 114, 1,1,1,3,3,3-Hexafluoro-2-(4′-((4-(thiazol-5-ylmethyl)piperazin-1-yl)methyl)-[1,1′-biphenyl]-4-yl)propan-2-ol]	0.79	0.87	50	0.63	0.92	–
OC(c1ccc(-c2ccc(CN3CCN(Cc4cscn4)CC3)cc2)cc1)(C(F)(F)F)C(F)(F)F [Compound 115, 1,1,1,3,3,3-Hexafluoro-2-(4′-((4-(thiazol-4-ylmethyl)piperazin-1-yl)methyl)-[1,1′-biphenyl]-4-yl)propan-2-ol]	0.61	0.31	75	0.76	0.69	–
O=C(c1cscn1)N1CCN(Cc2ccc(-c3ccc(C(O)(C(F)(F)F)C(F)(F)F)cc3)cc2)CC1 [Compound 116, (4-((4′-(1,1,1,3,3,3-Hexafluoro-2-hydroxypropan-2-yl)-[1,1′-biphenyl]-4-yl)methyl)piperazin-1-yl)(thiazol-4-yl)methanone]	0.56	0.59	76	0.81	0.76	–
